The results in this text go back to patent publication US12091389B2, “Pyrazolylbenzene-1,3-diols for diseases associated with g protein-coupled receptor 18 and in combination with transient receptor potential vanilloid 1” (Temple University—Of The Commonwealth System of Higher …, priority 2020, dated 2024).

Each structure is given as a SMILES string.

This assay deals with TRPV1 (Homo sapiens, UniProt Q8NER1). Nature of the assay: Calcium imaging (Fura-2 AM) in TRPV1-expressing HEK293 cells. Particulars: compound alone, 5 μM. It counts as cell-based.
Chain of TRPV1 (Q8NER1 whole entry): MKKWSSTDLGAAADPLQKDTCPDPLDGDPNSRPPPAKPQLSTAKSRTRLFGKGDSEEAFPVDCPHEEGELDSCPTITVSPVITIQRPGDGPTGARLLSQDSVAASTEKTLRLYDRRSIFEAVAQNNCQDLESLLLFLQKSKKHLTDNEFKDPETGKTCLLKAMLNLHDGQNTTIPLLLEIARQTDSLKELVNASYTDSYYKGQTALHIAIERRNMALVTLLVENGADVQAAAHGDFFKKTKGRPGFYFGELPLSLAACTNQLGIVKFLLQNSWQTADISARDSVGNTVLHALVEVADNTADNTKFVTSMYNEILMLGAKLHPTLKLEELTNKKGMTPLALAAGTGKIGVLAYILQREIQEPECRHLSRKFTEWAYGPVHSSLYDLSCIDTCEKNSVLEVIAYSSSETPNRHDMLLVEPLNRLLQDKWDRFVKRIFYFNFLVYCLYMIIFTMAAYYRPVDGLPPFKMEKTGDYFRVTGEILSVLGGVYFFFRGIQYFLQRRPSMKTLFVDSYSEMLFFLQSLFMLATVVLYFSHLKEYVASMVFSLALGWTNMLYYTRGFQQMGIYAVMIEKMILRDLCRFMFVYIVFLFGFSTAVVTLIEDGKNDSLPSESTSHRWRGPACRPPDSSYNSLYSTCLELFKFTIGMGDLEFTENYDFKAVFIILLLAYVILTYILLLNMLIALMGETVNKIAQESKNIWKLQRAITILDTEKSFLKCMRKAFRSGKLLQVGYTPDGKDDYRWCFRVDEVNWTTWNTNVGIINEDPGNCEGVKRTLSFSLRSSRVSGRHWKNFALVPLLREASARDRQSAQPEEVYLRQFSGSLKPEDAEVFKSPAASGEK

As for `CCCCC/C=C\C/C=C\C/C=C\C/C=C\CCCC(=O)NCCO` [Anandamide], the “Effect on intracellular calcium (Ca^2+) in TPRV1-expressing cells” value is “increases intracellular calcium”.
